Experimental data taken from article PMC6823631 (Journal of immunology (Baltimore, Md. : 1950), 2019).

Key:
Assay in all cases: fluorescence quenching titration of antibody tryptophan
[1] = molecular target: penicillin G specific IgG (IgG^Pen, monoclonal antibody clone P2B9); format: binding, Mus musculus
[2] = molecular target: anti-dansyl IgE (IgE^dansyl, clone 27-74); format: binding
IgE = format: binding

Benzylpenicilloyl
Kd [1]: 20000 ± 4000 nM

dansyl
Kd [2]: 29.9 ± 10 nM

O=C(O)Cc1ccc2ccccc2c1 [Napht, 2-naphteleneacetic acid]
Kd (IgE): 1800 ± 300 nM
